Laboratory results published in patent publication US9777003B2, “Tricyclic heterocycles as bet protein inhibitors” (Incyte Corporation, priority 2013, dated 2017).
Structures can show the parent of a compound that is named as a salt.

Tests used:
BRD4-BD2 = BRD4-BD2 (Homo sapiens (Human), UniProt O60885); assay: BRD4 AlphaScreen assay, BRD4-BD2; format: binding; details: biotin-labeled tetra-acetylated histone H4 peptide, 75 min, room temperature, read-out: BRD4 BD-2 enzyme IC50
Method: (§1) BRD4-BD1 and BRD4-BD2 assays were conducted in white 384-well polystyrene plate in a final volume of 20 μL for BD1 and 40 μL for BD2. Inhibitors were first serially diluted in DMSO and added to the plate wells before the addition of other reaction components. The final concentration of DMSO in the assay was 1.25% (BD1) and 0.83% (BD2). The assays were carried out at room temperature for 75 min. in the assay buffer (50 mM HEPES, pH 7.4, 100 mM NaCl, 0.05% CHAPS, 0.01% BSA), containing 50 nM Biotin-labeled tetra-acetylated histone H4 peptide (H4Ac4), 3.8 nM (BRD4-BD1, BPS Bioscience #31040) or 20 nM (BRD4-BD2, BPS Bioscience #31041). The reaction followed by the addition of 20 μL of assay buffer supplemented with Streptavidin donor beads (PerkinElmer 6760002) and GSH Acceptor beads (PerkinElmer-AL109C) at 4 μg/mL under reduced light. After plate sealing, the plate was incubated in the dark at room temperature for 75 min. before reading on a PHERAstar FS plate reader (BMG Labtech). IC50 determination was performed by fitting the curve of percent control activity versus the log of the inhibitor concentration using the GraphPad Prism 5.0 software.

BRD4-BD1 = BRD4-BD1 (Homo sapiens (Human), UniProt O60885); assay: BRD4 AlphaScreen assay, BRD4-BD1; format: binding; details: biotin-labeled tetra-acetylated histone H4 peptide, 75 min, room temperature, read-out: BRD4 BD-1 enzyme IC50
Method: as §1

| Structure (SMILES) | IC50 (BRD4-BD2) [nM] | IC50 (BRD4-BD1) [nM] |
| --- | --- | --- |
| CC(=O)N1CCC(c2cc3c(ccc4nnc(C)n43)n2Cc2ccccc2)C1 (racemic) [Example 187, 7-(1-Acetylpyrrolidin-3-yl)-6-benzyl-1-methyl-6H-pyrrolo[2,3-e][1,2,4]triazolo[4,3-a]pyridine Trifluoroacetate Salt] | 1000 to 10000 | 1000 to 10000 |
| CCN1CC(CC#N)(n2ccc(-c3cc4c(ccc5nnc(C)n54)n3Cc3cccc(Cl)c3)n2)C1 [Example 158, (3-{3-[6-(3-Chlorobenzyl)-1-methyl-6H-pyrrolo[2,3-e][1,2,4]triazolo[4,3-a]pyridin-7-yl]-1H-pyrazol-1-yl}-1-ethylazetidin-3-yl)acetonitrile bis(trifluoroacetate) Salt] | ≤ 100 | ≤ 100 |
| Cc1nnc2ccc3c(cc(-c4ccn(C5CN(C(=O)C6CC6)C5)n4)n3Cc3cccc(Cl)c3)n12 [Example 164, 6-(3-Chlorobenzyl)-7-{1-[1-(cyclopropylcarbonyl)azetidin-3-yl]-1H-pyrazol-3-yl}-1-methyl-6H-pyrrolo[2,3-e][1,2,4]triazolo[4,3-a]pyridine Trifluoroacetate Salt] | ≤ 100 | ≤ 100 |
| CNC(=O)c1cc2c(ccc3nnc(C)n32)n1Cc1cc(Cl)cc(CN2CCC(F)(F)C2)c1 [Example 134, 6-{3-Chloro-5-[(3,3-difluoropyrrolidin-1-yl)methyl]benzyl}-N,1-dimethyl-6H-pyrrolo[2,3-e][1,2,4]triazolo[4,3-a]pyridine-7-carboxamide 2.4×(trifluoroacetate) Salt] | ≤ 100 | ≤ 100 |
| Cc1cc2c(cc(NCCN)c3nnc(C)n32)n1Cc1ccccc1 [Example 258, N1-(6-benzyl-1,7-dimethyl-6H-pyrrolo[2,3-e][1,2,4]triazolo[4,3-a]pyridin-4-yl)ethane-1,2-diamine] | ≤ 100 | ≤ 100 |
| Cc1cc2c(ccc3nnc(C)n32)n1Cc1ccc(O)cc1 [Example 35, 4-[(1,7-dimethyl-6H-pyrrolo[2,3-e][1,2,4]triazolo[4,3-a]pyridin-6-yl)methyl]phenol] | ≤ 100 | ≤ 100 |
| CCNCc1cccc(Cn2c(C)cc3c2ccc2nnc(C)n23)c1 [Example 42, N-{3-[(1,7-dimethyl-6H-pyrrolo[2,3-e][1,2,4]triazolo[4,3-a]pyridin-6-yl)methyl]benzyl}ethanamine] | ≤ 100 | ≤ 100 |
| CNC(=O)c1cc2c(ccc3nnc(C)n32)n1Cc1cccc(C(F)(F)F)c1 [Example 136, N,1-dimethyl-6-[3-(trifluoromethyl)benzyl]-6H-pyrrolo[2,3-e][1,2,4]triazolo[4,3-a]pyridine-7-carboxamide Trifluoroacetate Salt] | ≤ 100 | ≤ 100 |
| Cc1nnc2ccc3c(cc(Cn4ccnc4)n3Cc3ccccc3)n12 [Example 57, 6-benzyl-7-(1H-imidazol-1-ylmethyl)-1-methyl-6H-pyrrolo[2,3-e][1,2,4]triazolo[4,3-a]pyridine] | 100 to 1000 | 1000 to 10000 |
| CNC(=O)c1cc2c(ccc3nnc(C)n32)n1Cc1cccc(CN2CCC2)c1 [Example 122, 6-[3-(Azetidin-1-ylmethyl)benzyl]-N,1-dimethyl-6H-pyrrolo[2,3-e][1,2,4]triazolo[4,3-a]pyridine-7-carboxamide bis(trifluoroacetate) Salt] | ≤ 100 | ≤ 100 |
| Cc1nnc2ccc3c(cc(C(=O)NCCCO)n3Cc3cccc(Cl)c3)n12 [Example 127, 6-(3-Chlorobenzyl)-N-(3-hydroxypropyl)-1-methyl-6H-pyrrolo[2,3-e][1,2,4]triazolo[4,3-a]pyridine-7-carboxamide Trifluoroacetate Salt] | ≤ 100 | ≤ 100 |
| Cc1cc2c(cc(NC3CCN(C)CC3)c3nnc(C)n32)n1Cc1ccccn1 [Example 153, 1,7-dimethyl-N-(1-methylpiperidin-4-yl)-6-(pyridin-2-ylmethyl)-6H-pyrrolo[2,3-e][1,2,4]triazolo[4,3-a]pyridin-4-amine] | ≤ 100 | ≤ 100 |
| CNc1cc2c(cc(C)n2Cc2ccccc2)n2c(C)nnc12 [Example 261, 6-Benzyl-N,1,7-trimethyl-6H-pyrrolo[2,3-e][1,2,4]triazolo[4,3-a]pyridin-4-amine] | ≤ 100 | ≤ 100 |
| COc1ccc(Cn2c(C)cc3c2ccc2nnc(C)n23)cc1 [Example 34, 6-(4-methoxybenzyl)-1,7-dimethyl-6H-pyrrolo[2,3-e][1,2,4]triazolo[4,3-a]pyridine] | ≤ 100 | ≤ 100 |
| Cc1nnc2ccc3c(cc(-c4cccs4)n3Cc3ccccc3)n12 [Example 73, 6-benzyl-1-methyl-7-(2-thienyl)-6H-pyrrolo[2,3-e][1,2,4]triazolo[4,3-a]pyridine] | ≤ 100 | 100 to 1000 |
| Cc1nnc2ccc3c(cc(C(=O)N[C@H]4C[C@@H](C#N)C4)n3Cc3ccccc3)n12 [Example 101, 6-benzyl-N-(cis-3-cyanocyclobutyl)-1-methyl-6H-pyrrolo[2,3-e][1,2,4]triazolo[4,3-a]pyridine-7-carboxamide] | 100 to 1000 | 100 to 1000 |
| Cc1cc2c(ccc3nnc(C)n32)n1S(=O)(=O)c1ccccc1 [Example 2a, 1,7-dimethyl-6-(phenylsulfonyl)-6H-pyrrolo[2,3-e][1,2,4]triazolo[4,3-a]pyridine] | 100 to 1000 | – |
| Cc1cc2c(cc(NCC3CN(C(=O)OC(C)(C)C)C3)c3nnc(C)n32)n1Cc1ccccc1 [Example 243, tert-Butyl 3-((6-benzyl-1,7-dimethyl-6H-pyrrolo[2,3-e][1,2,4]triazolo[4,3-a]pyridin-4-ylamino)methyl)azetidine-1-carboxylate] | ≤ 100 | 100 to 1000 |
| Cc1cc2c(cc(NC3CCCN(C)C3)c3nnc(C)n32)n1Cc1ccccc1 (racemic) [Example 144, 6-benzyl-1,7-dimethyl-N-(1-methylpiperidin-3-yl)-6H-pyrrolo[2,3-e][1,2,4]triazolo[4,3-a]pyridin-4-amine] | ≤ 100 | ≤ 100 |
| CCS(=O)(=O)N1CC(n2ccc(-c3cc4c(ccc5nnc(C)n54)n3Cc3cccc(Cl)c3)n2)C1 [Example 166, 6-(3-Chlorobenzyl)-7-{1-[1-(ethylsulfonyl)azetidin-3-yl]-1H-pyrazol-3-yl}-1-methyl-6H-pyrrolo[2,3-e][1,2,4]triazolo[4,3-a]pyridine Trifluoroacetate Salt] | ≤ 100 | ≤ 100 |
| Cc1nnc2ccc3c(ccn3C(C)c3ccccc3)n12 (racemic) [Example 4, 1-methyl-6-(1-phenylethyl)-6H-pyrrolo[2,3-e][1,2,4]triazolo[4,3-a]pyridine] | ≤ 100 | 100 to 1000 |
| Cc1cc2c(ccc3nnc(C)n32)n1Cc1ccc(CN2CCC2)cc1 [Example 50, 6-[4-(azetidin-1-ylmethyl)benzyl]-1,7-dimethyl-6H-pyrrolo[2,3-e][1,2,4]triazolo[4,3-a]pyridine] | ≤ 100 | ≤ 100 |
| Cc1cc2c(ccc3nnc(C)n32)n1Cc1cccc(CN2CCN(C)CC2)c1 [Example 47, 1,7-dimethyl-6-{3-[(4-methylpiperazin-1-yl)methyl]benzyl}-6H-pyrrolo[2,3-e][1,2,4]triazolo[4,3-a]pyridine] | ≤ 100 | 100 to 1000 |
| CNC(=O)c1cc2c(ccc3nnc(C)n32)n1Cc1cccc(F)c1 [Example 102, 6-(3-fluorobenzyl)-N,1-dimethyl-6H-pyrrolo[2,3-e][1,2,4]triazolo[4,3-a]pyridine-7-carboxamide] | ≤ 100 | ≤ 100 |
| Cc1cc2c(ccc3nnc(C)n32)n1Cc1cccc(CN2CCCC2)c1 [Example 45, 1,7-dimethyl-6-[3-(pyrrolidin-1-ylmethyl)benzyl]-6H-pyrrolo[2,3-e][1,2,4]triazolo[4,3-a]pyridine] | ≤ 100 | ≤ 100 |
| Cc1cc2c(cc(NC(N)=O)c3nnc(C)n32)n1Cc1ccc(F)c(F)c1 [Example 234, 1-(6-(3,4-Difluorobenzyl)-1,7-dimethyl-6H-pyrrolo[2,3-e][1,2,4]triazolo[4,3-a]pyridin-4-yl)urea] | ≤ 100 | ≤ 100 |
| Cc1ccccc1Cn1c(C)cc2c1ccc1nnc(C)n12 [Example 17, 1,7-dimethyl-6-(2-methylbenzyl)-6H-pyrrolo[2,3-e][1,2,4]triazolo[4,3-a]pyridine] | ≤ 100 | ≤ 100 |
| Cc1nnc2ccc3c(cc(C(=O)NCCCO)n3Cc3ccccc3)n12 [Example 123, 6-Benzyl-N-(3-hydroxypropyl)-1-methyl-6H-pyrrolo[2,3-e][1,2,4]triazolo[4,3-a]pyridine-7-carboxamide Trifluoroacetate Salt] | ≤ 100 | 100 to 1000 |
| CC(=O)Nc1cccc(Cn2c(C)cc3c2ccc2nnc(C)n23)c1 [Example 25, N-{3-[(1,7-dimethyl-6H-pyrrolo[2,3-e][1,2,4]triazolo[4,3-a]pyridin-6-yl)methyl]phenyl}acetamide Trifluoroacetate Salt] | ≤ 100 | 100 to 1000 |
| CNCc1cccc(Cn2c(C)cc3c2ccc2nnc(C)n23)c1 [Example 41, 1-{3-[(1,7-dimethyl-6H-pyrrolo[2,3-e][1,2,4]triazolo[4,3-a]pyridin-6-yl)methyl]phenyl}-N-methylmethanamine] | ≤ 100 | ≤ 100 |
